Measured values as given in ChEMBL document CHEMBL1153371, “Antiseizure activity of novel gamma-aminobutyric acid (A) receptor subtype-selective benzodiazepine analogues in mice and rat models” (J Med Chem, 2009).
The source made the active and inactive calls. No cut-off for these calls is given here.

What was measured:
Rattus norvegicus [1] = experiment: Toxicity in rat assessed as motor impairment at 50 mg/kg, ip after 4 hrs by rotarod paradigm test; type: organism-based; parameters: dose 50 mg/kg, route intraperitoneal; conditions: in vivo
Rattus norvegicus [2] = experiment: Toxicity in rat assessed as motor impairment at 50 mg/kg, po after 0.5 hrs by rotarod paradigm test; type: organism-based; parameters: dose 50 mg/kg, route oral; conditions: in vivo
Rattus norvegicus [3] = experiment: Toxicity in rat assessed as motor impairment at 50 mg/kg, po after 1 hr by rotarod paradigm test; type: organism-based; parameters: dose 50 mg/kg, route oral; conditions: in vivo
Rattus norvegicus [4] = experiment: Toxicity in rat assessed as motor impairment at 50 mg/kg, ip after 0.5 hrs by rotarod paradigm test; type: organism-based; parameters: dose 50 mg/kg, route intraperitoneal; conditions: in vivo
Rattus norvegicus [5] = experiment: Anticonvulsant activity in rat assessed as protection against subcutaneous metrazole-induced seizure at 50 mg/kg, ip after 0.5 hrs; type: functional
Rattus norvegicus [6] = experiment: Anticonvulsant activity in rat assessed as protection against subcutaneous metrazole-induced seizure at 50 mg/kg, ip after 4 hrs; type: functional
[7] = target: GABA-A receptor; alpha-2/beta-3/gamma-2 (Homo sapiens) (UniProt P18507+P28472+P47869); experiment: Activity at GABAA alpha-2-beta-3-gamma-2 receptor expressed in oocytes assessed as stimulation of GABA-induced current at 1 uM relative to control; type: cell-based; conditions: Oocyte
Rattus norvegicus [8] = experiment: Toxicity in rat assessed as motor impairment at 30 mg/kg, ip after 1 hr by rotarod paradigm test; type: organism-based; parameters: dose 30 mg/kg, route intraperitoneal; conditions: in vivo
Mus musculus [9] = experiment: Toxicity in mouse assessed as motor impairment at 100 mg/kg, ip after 4 hrs by rotarod paradigm test; type: organism-based; parameters: dose 100 mg/kg, route intraperitoneal; conditions: in vivo
Mus musculus [10] = experiment: Anticonvulsant activity in ip dosed mouse assessed as protection against subcutaneous metrazole-induced seizure; type: functional
Mus musculus [11] = experiment: Anticonvulsant activity in ip dosed mouse assessed as protection against maximal electroshock-induced seizure; type: functional
[12] = target: GABA-A receptor; alpha-5/beta-3/gamma-2 (Homo sapiens) (UniProt P18507+P28472+P31644); experiment: Activity at GABAA alpha-5-beta-3-gamma-2 receptor expressed in oocytes assessed as stimulation of GABA-induced current at 1 uM relative to control; type: cell-based; conditions: Oocyte
[13] = target: GABA-A receptor; alpha-1/beta-3/gamma-2 (Homo sapiens) (UniProt P14867+P18507+P28472); experiment: Activity at GABAA alpha-1-beta-3-gamma-2 receptor expressed in oocytes assessed as stimulation of GABA-induced current at 1 uM relative to control; type: cell-based; conditions: Oocyte
Rattus norvegicus [14] = experiment: Toxicity in rat assessed as motor impairment at 50 mg/kg, ip after 1 hr by rotarod paradigm test; type: organism-based; parameters: dose 50 mg/kg, route intraperitoneal; conditions: in vivo
[15] = Toxicity in po dosed rat assessed as minimal muscular or neurological impairment by rotarod paradigm test; type: organism-based; conditions: in vivo
Rattus norvegicus [16] = experiment: Anticonvulsant activity in rat assessed as protection against maximal electroshock-induced seizure at 30 mg/kg, ip and po after 4 hrs; type: functional, organism-based; parameters: dose 30 mg/kg
Rattus norvegicus [17] = experiment: Anticonvulsant activity in po dosed rat assessed as protection against subcutaneous metrazole-induced seizure; type: functional
Rattus norvegicus [18] = experiment: Anticonvulsant activity in rat assessed as blockade against kindle motor-induced seizure at 100 mg/kg, ip by hippocampal kindling screen test; type: functional, organism-based; parameters: dose 100 mg/kg; conditions: Hippocampus
Rattus norvegicus [19] = experiment: Anticonvulsant activity against kindle motor-induced seizure in rat assessed as after discharge duration at 100 mg/kg, ip by hippocampal kindling screen test; type: functional, Hippocampus; conditions: route intraperitoneal
Rattus norvegicus [20] = experiment: Anticonvulsant activity in rat assessed as protection against subcutaneous metrazole-induced seizure at 50 mg/kg, po after 0.5 hrs; type: functional
[21] = Therapeutic index, ratio of TD50 for po dosed rat to ED50 for protection against subcutaneous metrazole-induced seizure in po dosed rat; type: organism-based; conditions: in vivo, read-out: Ratio TD50/ED50
[22] = Toxicity in ip dosed mouse assessed as minimal muscular or neurological impairment by rotarod paradigm test; type: organism-based; conditions: in vivo
Mus musculus [23] = experiment: Toxicity in mouse assessed as motor impairment at 100 mg/kg, ip after 0.5 hrs by rotarod paradigm test; type: organism-based; parameters: dose 100 mg/kg, route intraperitoneal; conditions: in vivo
[24] = Therapeutic index, ratio of TD50 for ip dosed mouse to ED50 for protection against subcutaneous metrazole-induced seizure in ip dosed mouse; type: organism-based; conditions: in vivo, read-out: Ratio TD50/ED50
Mus musculus [25] = experiment: Anticonvulsant activity in mouse assessed as protection against maximal electroshock-induced seizure at 100 mg/kg, ip after 4 hrs; type: functional, organism-based; parameters: dose 100 mg/kg
Rattus norvegicus [26] = experiment: Toxicity in rat assessed as sedative effect at 500 mg/kg, po; type: organism-based; parameters: dose 500 mg/kg, route oral; conditions: in vivo
Rattus norvegicus [27] = experiment: Anticonvulsant activity in po dosed rat assessed as protection against maximal electroshock-induced seizure; type: functional
Mus musculus [28] = experiment: Anticonvulsant activity in mouse assessed as protection against maximal electroshock-induced seizure at 100 mg/kg, ip after 0.5 hrs; type: functional, organism-based; parameters: dose 100 mg/kg
[29] = target: T1, Gamma-aminobutyric acid receptor subunit alpha-3 (Homo sapiens) (UniProt P34903); experiment: Activity at GABAA alpha-3-beta-3-gamma-2 receptor expressed in oocytes assessed as stimulation of GABA-induced current at 1 uM relative to control; type: cell-based; conditions: Oocyte
T1 sequence (whole entry): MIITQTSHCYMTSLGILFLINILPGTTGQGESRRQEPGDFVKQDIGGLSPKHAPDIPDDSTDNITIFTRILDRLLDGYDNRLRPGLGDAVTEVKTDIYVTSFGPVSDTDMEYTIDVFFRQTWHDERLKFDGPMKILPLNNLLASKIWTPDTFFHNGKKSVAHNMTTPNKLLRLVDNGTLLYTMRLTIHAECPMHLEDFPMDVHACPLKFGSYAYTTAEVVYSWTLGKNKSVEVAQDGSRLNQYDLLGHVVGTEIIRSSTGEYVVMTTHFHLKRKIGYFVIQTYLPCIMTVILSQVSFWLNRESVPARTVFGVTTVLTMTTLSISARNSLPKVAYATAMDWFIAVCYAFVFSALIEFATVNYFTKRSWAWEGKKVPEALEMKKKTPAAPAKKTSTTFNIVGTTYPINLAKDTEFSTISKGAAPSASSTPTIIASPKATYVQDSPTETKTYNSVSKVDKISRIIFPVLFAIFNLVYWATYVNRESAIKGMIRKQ

Mus musculus [30] = experiment: Anticonvulsant activity in mouse assessed as protection against subcutaneous metrazole-induced seizure at 100 mg/kg, ip after 4 hrs; type: functional, organism-based; parameters: dose 100 mg/kg
Rattus norvegicus [31] = experiment: Anticonvulsant activity in rat assessed as protection against subcutaneous metrazole-induced seizure at 50 mg/kg, po after 4 hrs; type: functional, organism-based; parameters: dose 50 mg/kg
Rattus norvegicus [32] = experiment: Anticonvulsant activity in rat assessed as protection against maximal electroshock-induced seizure at 30 mg/kg, ip and po after 0.5 hrs; type: functional, organism-based; parameters: dose 30 mg/kg
Rattus norvegicus [33] = experiment: Anticonvulsant activity in rat assessed as blockade against kindle motor-induced seizure at 50 mg/kg, ip by hippocampal kindling screen test; type: functional, organism-based; parameters: dose 50 mg/kg; conditions: Hippocampus
Rattus norvegicus [34] = experiment: Anticonvulsant activity against kindle motor-induced seizure in rat assessed as after discharge duration at 50 mg/kg, ip by hippocampal kindling screen test; type: functional, Hippocampus; conditions: route intraperitoneal
Rattus norvegicus [35] = experiment: Anticonvulsant activity in rat assessed as protection against subcutaneous metrazole-induced seizure at 15 mg/kg, po after 4 hrs; type: functional
Rattus norvegicus [36] = experiment: Anticonvulsant activity against kindle motor-induced seizure in rat assessed as after discharge duration at 10 mg/kg, ip by hippocampal kindling screen test; type: functional, Hippocampus; conditions: route intraperitoneal
Rattus norvegicus [37] = experiment: Anticonvulsant activity in rat assessed as blockade against kindle motor-induced seizure at 10 mg/kg, ip by hippocampal kindling screen test; type: functional, organism-based; parameters: dose 10 mg/kg; conditions: Hippocampus
Rattus norvegicus [38] = experiment: Toxicity in rat assessed as motor impairment at 3 mg/kg, ip after 1 hr by rotarod paradigm test; type: organism-based; parameters: dose 3 mg/kg, route intraperitoneal; conditions: in vivo
Rattus norvegicus [39] = experiment: Toxicity in rat assessed as motor impairment at 50 mg/kg, po after 4 hrs by rotarod paradigm test; type: organism-based; parameters: dose 50 mg/kg, route oral; conditions: in vivo

SMILES	Activity (Rattus norvegicus [4])	Activity [7]	ED50 (Mus musculus [10])	ED50 (Mus musculus [11])	Activity [12]	Activity [13]	TD50 [15]	ED50 (Rattus norvegicus [17])	selectivity ratio [21]	TD50 [22]	selectivity ratio [24]	ED50 (Rattus norvegicus [27])	Activity [29]	further results
CCOC(=O)c1ncn2c1CN=C(c1ccccc1F)c1cc(I)ccc1-2	Non-toxic	–	–	–	–	–	–	–	–	–	–	–	–	Activity (Rattus norvegicus [1]): Non-toxic; Activity (Rattus norvegicus [2]): Non-toxic; Activity (Rattus norvegicus [3]): Non-toxic; Activity (Rattus norvegicus [5]): inactive; Activity (Rattus norvegicus [6]): inactive
C#Cc1ccc2c(c1)C(c1ccccn1)=NCc1c(C(=O)OCC)ncn1-2	Non-toxic	313%	16.3 mg/kg	> 300 mg/kg	174%	167%	> 500 mg/kg	98.5 mg/kg	> 5	> 500 mg/kg	> 30.2	> 250 mg/kg	346%	Activity (Rattus norvegicus [8]): Non-toxic; Activity (Mus musculus [9]): Non-toxic; Activity (Rattus norvegicus [14]): Non-toxic; Activity (Rattus norvegicus [16]): inactive; Activity (Rattus norvegicus [18]): Active; Activity (Rattus norvegicus [19]): 59 s; Activity (Rattus norvegicus [20]): 100%; Activity (Mus musculus [23]): Non-toxic; Activity (Mus musculus [25]): inactive; Activity (Rattus norvegicus [5]): 88%; Activity (Rattus norvegicus [26]): Non-toxic; Activity (Mus musculus [28]): inactive; Activity (Mus musculus [30]): inactive; Activity (Rattus norvegicus [6]): 63%
NC(=O)N1c2ccccc2C=Cc2ccccc21 [CARBAMAZEPINE]	–	–	> 50 mg/kg	7.81 mg/kg	–	–	–	> 250 mg/kg	–	–	–	5.35 mg/kg	–	–
CN1C(=O)CN=C(c2ccccc2)c2cc(Cl)ccc21	–	508%	–	–	420%	345%	–	–	–	–	–	–	776%	–
O=C1NC(=O)C(c2ccccc2)(c2ccccc2)N1 [PHENYTOIN]	–	–	> 50 mg/kg	5.64 mg/kg	–	–	> 1000 mg/kg	> 500 mg/kg	2	–	< 0.82	28.1 mg/kg	–	–
O=C1CN=C(c2ccccc2Cl)c2cc([N+](=O)[O-])ccc2N1 [CLONAZEPAM]	–	–	0.02 mg/kg	25.6 mg/kg	–	–	2.38 mg/kg	0.61 mg/kg	3.9	0.26 mg/kg	13	7.86 mg/kg	–	–
C#Cc1ccc2c(c1)C(c1ccccc1F)=NCc1c(C(=O)OCC)ncn1-2	Non-toxic	410%	8.87 mg/kg	> 200 mg/kg	246%	248%	> 500 mg/kg	23.7 mg/kg	> 21.1	> 400 mg/kg	> 44	> 250 mg/kg	596%	Activity (Rattus norvegicus [1]): Non-toxic; Activity (Rattus norvegicus [8]): Non-toxic; Activity (Rattus norvegicus [31]): Active; Activity (Rattus norvegicus [32]): inactive; Activity (Rattus norvegicus [33]): Active; Activity (Rattus norvegicus [34]): 38 s
C#Cc1ccc2c(c1)C(c1ccccc1Cl)=NCc1nnc(C)n1-2	–	–	1.03 mg/kg	> 6 mg/kg	–	–	–	1.58 mg/kg	> 105	–	2.8	> 150 mg/kg	–	Activity (Rattus norvegicus [35]): 50%; Activity (Rattus norvegicus [32]): inactive; Activity (Rattus norvegicus [36]): 92 s; Activity (Rattus norvegicus [2]): Non-toxic; Activity (Rattus norvegicus [37]): Active; Activity (Rattus norvegicus [16]): inactive; Activity (Rattus norvegicus [20]): Active; Activity (Rattus norvegicus [38]): Non-toxic; Activity (Rattus norvegicus [39]): Non-toxic
